Measured values as given in PubChem BioAssay AID2060627 (Molecular Pharmacology Branch, DTP, NCI, 2025).
pIC50: −log10 of the molar value.

System: 156681-154-R-J1-PDC complex spheroid viability
Assay: Anticancer human tumor 156681-154-R-J1-PDC patient-derived melanoma cell line growth inhibition [CLK]
Conditions: for pIC50: curve of first compound; for viability, T/C: stronger effect = lower value
Outline: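 Multi-cell-type spheroids combined patient-derived tumor cells with HUVEC endothelial cells and human mesenchymal stem cells. Paired agents were dosed in half-log steps down from about clinical Cmax, or from 10 microM where Cmax was unknown.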

[1] = second compound 0.0316 µM, first compound 0.0316 µM
[2] = second compound 0.0316 µM, first compound 0.1 µM
[3] = second compound 0.0316 µM, first compound 0.316 µM
[4] = second compound 0.0316 µM, first compound 1 µM
[5] = second compound 0.0316 µM, first compound 3.16 µM
[6] = second compound 0.0316 µM, first compound 10 µM
[7] = second compound 0.1 µM, first compound 0.0316 µM
[8] = second compound 0.1 µM, first compound 0.1 µM
[9] = second compound 0.1 µM, first compound 0.316 µM
[10] = second compound 0.1 µM, first compound 1 µM
[11] = second compound 0.1 µM, first compound 3.16 µM
[12] = second compound 0.1 µM, first compound 10 µM
[13] = second compound 0.316 µM, first compound 0.0316 µM
[14] = second compound 0.316 µM, first compound 0.1 µM
[15] = second compound 0.316 µM, first compound 0.316 µM
[16] = second compound 0.316 µM, first compound 1 µM
[17] = second compound 0.316 µM, first compound 3.16 µM
[18] = second compound 0.316 µM, first compound 10 µM
[19] = second compound 1 µM, first compound 0.0316 µM
[20] = second compound 1 µM, first compound 0.1 µM
[21] = second compound 1 µM, first compound 0.316 µM
[22] = second compound 1 µM, first compound 1 µM
[23] = second compound 1 µM, first compound 3.16 µM
[24] = second compound 1 µM, first compound 10 µM
[25] = second compound 3.16 µM, first compound 0.0316 µM
[26] = second compound 3.16 µM, first compound 0.1 µM
[27] = second compound 3.16 µM, first compound 0.316 µM
[28] = second compound 3.16 µM, first compound 1 µM
[29] = second compound 3.16 µM, first compound 3.16 µM
[30] = second compound 3.16 µM, first compound 10 µM
[31] = second compound 10 µM, first compound 0.0316 µM
[32] = second compound 10 µM, first compound 0.1 µM
[33] = second compound 10 µM, first compound 0.316 µM
[34] = second compound 10 µM, first compound 1 µM
[35] = second compound 10 µM, first compound 3.16 µM
[36] = second compound 10 µM, first compound 10 µM
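Note: spheroids exposed to the agents for seven days.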
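Throughout, for viability, T/C: 100% = DMSO vehicle control viability.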

CC(C)CC(NC(=O)C(Cc1ccccc1)NC(=O)c1cnccn1)B(O)O (stereo unspecified) + CN1CCN(c2cc(C(=O)Nc3cc4cc(-c5cnn(C)c5)ccc4cn3)ccn2)CC1
pIC50 (second compound 0.0316 µM): > 9.02 | pIC50 (second compound 0.1 µM): > 9.02 | pIC50 (second compound 0.316 µM): > 9.02 | pIC50 (second compound 1 µM): > 9.02 | pIC50 (second compound 3.16 µM): > 9.02 | pIC50 (second compound 10 µM): > 9.02 | viability, T/C (second compound 0.0316 µM, first compound 0.000949 µM): 30.4% | viability, T/C (second compound 0.0316 µM, first compound 0.003 µM): 2% | viability, T/C (second compound 0.0316 µM, first compound 0.00949 µM): 1.41% | viability, T/C (second compound 0.0316 µM, first compound 0.03 µM): 0.26% | viability, T/C (second compound 0.0316 µM, first compound 0.0949 µM): 1.66% | viability, T/C (second compound 0.0316 µM, first compound 0.3 µM): 1.32% | viability, T/C (second compound 0.1 µM, first compound 0.000949 µM): 28% | viability, T/C (second compound 0.1 µM, first compound 0.003 µM): 0.48% | viability, T/C (second compound 0.1 µM, first compound 0.00949 µM): 1.04% | viability, T/C (second compound 0.1 µM, first compound 0.03 µM): 0.2% | viability, T/C (second compound 0.1 µM, first compound 0.0949 µM): 0.26% | viability, T/C (second compound 0.1 µM, first compound 0.3 µM): 0.77% | viability, T/C (second compound 0.316 µM, first compound 0.000949 µM): 13% | viability, T/C (second compound 0.316 µM, first compound 0.003 µM): 0.37% | viability, T/C (second compound 0.316 µM, first compound 0.00949 µM): 0.66% | viability, T/C (second compound 0.316 µM, first compound 0.03 µM): 0.14% | viability, T/C (second compound 0.316 µM, first compound 0.0949 µM): 0.29% | viability, T/C (second compound 0.316 µM, first compound 0.3 µM): 1.48% | viability, T/C (second compound 1 µM, first compound 0.000949 µM): 0.13% | viability, T/C (second compound 1 µM, first compound 0.003 µM): 0.37% | viability, T/C (second compound 1 µM, first compound 0.00949 µM): 0.14% | viability, T/C (second compound 1 µM, first compound 0.03 µM): 0.09% | viability, T/C (second compound 1 µM, first compound 0.0949 µM): 1.37% | viability, T/C (second compound 1 µM, first compound 0.3 µM): 0.12% | viability, T/C (second compound 3.16 µM, first compound 0.000949 µM): 0.33% | viability, T/C (second compound 3.16 µM, first compound 0.003 µM): 1.51% | viability, T/C (second compound 3.16 µM, first compound 0.00949 µM): 0.09% | viability, T/C (second compound 3.16 µM, first compound 0.03 µM): 0.08% | viability, T/C (second compound 3.16 µM, first compound 0.0949 µM): 3.52% | viability, T/C (second compound 3.16 µM, first compound 0.3 µM): 1.36% | viability, T/C (second compound 10 µM, first compound 0.000949 µM): 0.1% | viability, T/C (second compound 10 µM, first compound 0.003 µM): 1.45% | viability, T/C (second compound 10 µM, first compound 0.00949 µM): 2.17% | viability, T/C (second compound 10 µM, first compound 0.03 µM): 0.1% | viability, T/C (second compound 10 µM, first compound 0.0949 µM): 1.66% | viability, T/C (second compound 10 µM, first compound 0.3 µM): 0.84%

CC1COCCN1c1cc(C2(S(C)(=N)=O)CC2)nc(-c2ccnc3[nH]ccc23)n1 (stereo unspecified) + CN1CCN(c2cc(C(=O)Nc3cc4cc(-c5cnn(C)c5)ccc4cn3)ccn2)CC1
pIC50 (second compound 0.0316 µM): 5.92 | pIC50 (second compound 0.1 µM): 5.95 | pIC50 (second compound 0.316 µM): > 7.50 | pIC50 (second compound 1 µM): > 7.50 | pIC50 (second compound 3.16 µM): > 7.50 | pIC50 (second compound 10 µM): > 7.50 | viability, T/C [1]: 94.5% | viability, T/C [2]: 98.7% | viability, T/C [3]: 85% | viability, T/C [4]: 54% | viability, T/C [5]: 25.6% | viability, T/C [6]: 13% | viability, T/C [7]: 88.2% | viability, T/C [8]: 91.1% | viability, T/C [9]: 78.2% | viability, T/C [10]: 53.1% | viability, T/C [11]: 22.6% | viability, T/C [12]: 11.9% | viability, T/C [13]: 22.2% | viability, T/C [14]: 20.3% | viability, T/C [15]: 19.3% | viability, T/C [16]: 18.1% | viability, T/C [17]: 9.6% | viability, T/C [18]: 5.87% | viability, T/C [19]: 0.2% | viability, T/C [20]: 1.01% | viability, T/C [21]: 0.26% | viability, T/C [22]: 1.47% | viability, T/C [23]: 0.89% | viability, T/C [24]: 0.75% | viability, T/C [25]: 0.13% | viability, T/C [26]: 0.38% | viability, T/C [27]: 0.22% | viability, T/C [28]: 0.27% | viability, T/C [29]: 2.37% | viability, T/C [30]: 1.99% | viability, T/C [31]: 0.16% | viability, T/C [32]: 1.25% | viability, T/C [33]: 0.69% | viability, T/C [34]: 1.26% | viability, T/C [35]: 1.36% | viability, T/C [36]: 1.82%

O=C(c1cc(Cc2n[nH]c(=O)c3ccccc23)ccc1F)N1CCN(C(=O)C2CC2)CC1 + CN1CCN(c2cc(C(=O)Nc3cc4cc(-c5cnn(C)c5)ccc4cn3)ccn2)CC1
pIC50 (second compound 0.0316 µM): < 5.00 | pIC50 (second compound 0.1 µM): < 5.00 | pIC50 (second compound 0.316 µM): > 7.50 | pIC50 (second compound 1 µM): > 7.50 | pIC50 (second compound 3.16 µM): > 7.50 | pIC50 (second compound 10 µM): > 7.50 | viability, T/C [1]: 104% | viability, T/C [2]: 110% | viability, T/C [3]: 89.1% | viability, T/C [4]: 76.5% | viability, T/C [5]: 75.3% | viability, T/C [6]: 64.6% | viability, T/C [7]: 87.9% | viability, T/C [8]: 74.5% | viability, T/C [9]: 70.3% | viability, T/C [10]: 74.4% | viability, T/C [11]: 76.4% | viability, T/C [12]: 55.7% | viability, T/C [13]: 19.1% | viability, T/C [14]: 19.4% | viability, T/C [15]: 20.1% | viability, T/C [16]: 18% | viability, T/C [17]: 17.7% | viability, T/C [18]: 21.2% | viability, T/C [19]: 0.14% | viability, T/C [20]: 1.63% | viability, T/C [21]: 0.21% | viability, T/C [22]: 0.5% | viability, T/C [23]: 0.68% | viability, T/C [24]: 1.61% | viability, T/C [25]: 0.08% | viability, T/C [26]: 1.74% | viability, T/C [27]: 1.83% | viability, T/C [28]: 0.06% | viability, T/C [29]: 0.24% | viability, T/C [30]: 0.71% | viability, T/C [31]: 0.1% | viability, T/C [32]: 2.76% | viability, T/C [33]: 1.36% | viability, T/C [34]: 2.17% | viability, T/C [35]: 1.6% | viability, T/C [36]: 0.56%
